Results: patent US11993570B2, “Cationic lipids” (TAKEDA PHARMACEUTICAL COMPANY LIMITED, priority 2017, dated 2024)

Key:
[1] = Analysis of luciferase mRNA lipid particle composition (Production Example 1); format: physicochemical; conditions: for Particle size: lipid particle cationic lipid:DPPC:cholesterol:GM-020=60:10.6:28:1.4 with luciferase mRNA, Zetasizer Nano ZS; for Encapsulation ratio / mRNA Concentration: lipid particle composition with luciferase mRNA, RiboGreen
Description: (§1) The particle size of the lipid particle (in the composition) can be measured by using a known means. For example, a Zetasizer Nano ZS (Malvern Instruments Limited), a particle size analyzer based on an NIBS (non-invasive backscatter) technique, can be used to calculate the particle size as a z-average particle size through cumulant analysis of the autocorrelation function. The particle size (average particle size) of the lipid particle (in the composition) is preferably 10 to 200 nm.
(§2) The concentration and encapsulation ratio of a nucleic acid (e.g., an siRNA, an mRNA) as an active ingredient in the composition of the present invention can be measured by using a known means. For example, after the nucleic acid is fluorescence-labeled with Quant-iT™ RiboGreen® (Invitrogen), the concentration and the encapsulation ratio can be determined by measuring the fluorescence intensity. The concentration of the nucleic acid in the composition can be calculated by using a standard curve prepared from aqueous solutions of the nucleic acid with known concentrations, and the encapsulation ratio can be calculated on the basis of difference in fluorescence intensity depending on the presence or absence of addition of Triton-X100 (a surfactant to disintegrate the lipid particle). The concentration of the nucleic acid in the composition refers to the total concentration of molecules of the nucleic acid encapsulated in the lipid particle and molecules of the nucleic acid not encapsulated in the lipid particle, and the encapsulation ratio refers to the fraction of molecules of the nucleic acid encapsulated in the lipid particle to all the molecules of the nucleic acid in the composition.
(§3) A lipid mixture (cationic lipid produced in Examples:DPPC:cholesterol:GM-020=60:10.6:28:1.4, in mole ratio) was dissolved in 90% EtOH/10% RNase-free water to afford a 8.5 mg/mL lipid solution. Luciferase mRNA (TriLink Bio Technologies) was dissolved in 10 mM 2-morpholinoethanesulfonate (MES) buffer at pH 4.0 to afford a 0.22 mg/mL nucleic acid solution. The lipid solution and nucleic acid solution obtained were mixed by using the apparatus NanoAssemblr (Precision Nanosystems) at room temperature with a flow rate ratio of 3 mL/min:6 mL/min to afford a dispersion containing a lipid particle encapsulating the nucleic acid. By using a Slyde-A-Lyzer (molecular weight cutoff: 20k, Thermo Fisher Scientific), the dispersion obtained was dialyzed with water at room temperature for 1 hour and with PBS at 4° C. for 48 hours. Subsequently, filtration was performed with a 0.2 µm syringe filter (IWAKI CO., LTD.) to prepare a composition for nucleic acid introduction, and thereafter the composition was stored at 4° C. The particle size of the lipid particle was measured by using a Zetasizer Nano ZS (Malvern Instruments Limited). The mRNA concentration and encapsulation ratio of the lipid particle were measured by using a Quant-iT™ RiboGreen® (Invitrogen).

[2] = tested on: HCT116 cells; assay: Test of mRNA transfection into cultured cells (luciferase expression); format: cell-based, human; conditions: HCT116, 10 ng luciferase mRNA per well, 24 hours after addition
Procedure: as §3
The human colorectal cancer-derived cell line HCT116 cells were cultured in a 96-well plate at a cell density of 6000 cells/well, and 24 hours thereafter 10 μL of the composition containing 10 ng of luciferase mRNA for nucleic acid introduction (a solution obtained by diluting the product of Production Example 1 to an mRNA concentration of 10 ng/10 μL) was added to the medium. The level of luciferase expressed in HCT116 24 hours after the addition of mRNA was measured by using a Picagene LT2.0 kit (TOYOBO CO., LTD.).

[3] = Analysis of Col1a1/FVII siRNA lipid particle composition (Production Example 2); format: physicochemical; conditions: for Particle size: lipid particle cationic lipid:DPPC:cholesterol:GM-020=60:10.6:28:1.4 with Col1a1 and FVII siRNA, Zetasizer Nano ZS; for Encapsulation ratio / siRNA Concentration: lipid particle composition with Col1a1 and FVII siRNA, RiboGreen
Description: as §1, §2
A lipid mixture (cationic lipid produced in Examples:DPPC:cholesterol:GM-020=60:10.6:28:1.4, in mole ratio) was dissolved in 90% EtOH/10% RNase-free water to afford an approximately 7 mg/mL lipid solution. Equal amounts of an siRNA for Col1a1 and an siRNA for Factor VII (FVII) were mixed together, and the mixture was dissolved in 25 mM acetate buffer at pH 4.0 to afford a 0.2 mg/mL nucleic acid solution. Sequence information on the siRNAs are shown in a table below. The lipid solution and nucleic acid solution obtained were mixed by using the apparatus NanoAssemblr (Precision Nanosystems) at room temperature with a flow rate ratio of 3 mL/min:9 mL/min to afford a dispersion containing a lipid particle including the nucleic acids. By using a Slyde-A-Lyzer (molecular weight cutoff: 20k, Thermo Fisher Scientific), the dispersion obtained was dialyzed with water at room temperature for 1 hour and with PBS at 4° C. for 48 hours. Subsequently, filtration was performed with a 0.2 µm syringe filter (IWAKI CO., LTD.) to prepare a composition for nucleic acid introduction, and thereafter the composition was stored at 4° C. The particle size of the lipid particle was measured by using a Zetasizer Nano ZS (Malvern Instruments Limited). The mRNA concentration and encapsulation ratio of the lipid particle were measured by using a Quant-iT™ RiboGreen® (Invitrogen).

Compound | Particle size [1] | Encapsulation ratio [1] | mRNA Concentration [1] | Particle size [3] | Encapsulation ratio [3] | siRNA Concentration [3] | Mean value of luminescence for 3 wells ([2]; Table 3 (PBS control 560)) | Mean value of luminescence for 3 wells ([2]; Table 4 (PBS control 627))
CCCC/C=C\CCCCCCCC(=O)OCC(COC(=O)CCCCCCC/C=C\CCCC)(COC(=O)CCCCCCC/C=C\CCCC)COC(=O)CCCCCN(C)C [Example 3, 3-((6-(dimethylamino)hexanoyl)oxy)-2,2-bis(((9Z)-tetradec-9-enoyloxy)methyl)propyl (9Z)-tetradec-9-enoate] | 93 nm | 96% | 87 µg/mL | 117 nm | 95% | 196 µg/mL | 412187 cps | 
CCCC/C=C\CCCCCCCC(=O)OCC(COC(=O)CCCCCCC/C=C\CCCC)(COC(=O)CCCCCCC/C=C\CCCCCC)COC(=O)CCCCN(C)C [Example 5, 3-((5-(dimethylamino)pentanoyl)oxy)-2,2-bis(((9Z)-tetradec-9-enoyloxy)methyl)propyl (9Z)-hexadec-9-enoate] | 91 nm | 98% | 96 µg/mL | 103 nm | 94% | 367 µg/mL | 545507 cps | 
CCCC/C=C\CCCCCCCC(=O)OCC(COC(=O)CCCCCCC/C=C\CCCC)(COC(=O)CCCCCCC/C=C\CCCCCC)COC(=O)CCCN(C)C [Example 4, 3-((4-(Dimethylamino)butanoyl)oxy)-2,2-bis(((9Z)-tetradec-9-enoyloxy)methyl)propyl (9Z)-hexadec-9-enoate] | 76 nm | 97% | 113 µg/mL | 90 nm | 89% | 355 µg/mL | 407547 cps | 
CCCC/C=C\CCCCCCCC(=O)OCC(COC(=O)CCCCCCC/C=C\CCCC)(COC(=O)CCCCCCC/C=C\CCCC)COC(=O)CCCN(C)C [Example 1, 3-((4-(Dimethylamino)butanoyl)oxy)-2,2-bis(((9Z)-tetradec-9-enoyloxy)methyl)propyl (9Z)-tetradec-9-enoate] | 71 nm | 96% | 136 µg/mL |  |  |  | 227720 cps | 
CCCC/C=C\CCCCCCCC(=O)OCC(COC(=O)CCCCCCC/C=C\CCCC)(COC(=O)CCCCCCC/C=C\CCCC)COC(=O)CCCCN(C)C [Example 2, 3-((5-(dimethylamino)pentanoyl)oxy)-2,2-bis(((9Z)-tetradec-9-enoyloxy)methyl)propyl (9Z)-tetradec-9-enoate] | 90 nm | 96% | 73 µg/mL | 104 nm | 98% | 251 µg/mL | 570027 cps | 

The next lines start with results.

Particle size [1] | Encapsulation ratio [1] | mRNA Concentration [1] | Particle size [3] | Encapsulation ratio [3] | siRNA Concentration [3] | Compound | Mean value of luminescence for 3 wells ([2]; Table 3 (PBS control 560)) | Mean value of luminescence for 3 wells ([2]; Table 4 (PBS control 627))
67 nm | 94% | 84 µg/mL |  |  |  | CCCC/C=C\CCCCCCCC(=O)OCC(COC(=O)CCCCCCC)(COC(=O)CCCCCCC/C=C\CCCC)COC(=O)CCN(C)C [Example 8, 2-(((N,N-dimethyl-β-alanyl)oxy]methyl}-2-[(octanoyloxy)methyl)propane-1,3-diyl (9Z,9′Z)bis-tetradec-9-enoate] | 3853 cps | 
92 nm | 84% | 86 µg/mL | 88 nm | 90% | 307 µg/mL | CCCC/C=C\CCCCCCCC(=O)OCC(COC(=O)CCCCCCC/C=C\CCCC)(COC(=O)CCCCCCCCC)COC(=O)CCCN(C)C [Example 10, 2-((decanoyloxy)methyl)-2-(((4-(dimethylamino)butanoyl)oxy)methyl)propane-1,3-diyl (9Z,9′Z)bis-tetradec-9-enoate] | 1203467 cps | 
 |  |  | 102 nm | 96% | 320 µg/mL | CCCC/C=C\CCCCCCCC(=O)OCC(COC(=O)CCCCCCC/C=C\C/C=C\CCCCC)(COC(=O)CCCCCCC/C=C\CCCC)COC(=O)CCCCN(C)C [Example 7, 3-((5-(dimethylamino)pentanoyl)oxy)-2,2-bis(((9Z)-tetradec-9-enoyloxy)methyl)propyl (9Z,12Z)-octadec-9,12-dienoate] |  | 
 |  |  | 87 nm | 98% | 333 µg/mL | CCCC/C=C\CCCCCCCC(=O)OCC(COC(=O)CCCCCCC/C=C\CCCC)(COC(=O)CCCCCCC/C=C\CCCCCCCC)COC(=O)CCCCN(C)C [Example 6, 3-((5-(dimethylamino)pentanoyl)oxy)-2,2-bis(((9Z)-tetradec-9-enoyloxy)methyl)propyl (9Z)-octadec-9-enoate] |  | 
83 nm | 92% | 85 µg/mL | 85 nm | 91% | 402 µg/mL | CCCC/C=C\CCCCCCCC(=O)OCC(COC(=O)CCCCCCC/C=C\CCCC)(COC(=O)CCCCCCCCCCC)COC(=O)CCCN(C)C [Example 11, 2-(((4-(Dimethylamino)butanoyl)oxy)methyl)-2-((dodecanoyloxy)methyl)propane-1,3-diyl (9Z,9′Z)bis-tetradec-9-enoate] | 953520 cps | 
108 nm | 62% | 129 µg/mL |  |  |  | CCCC/C=C\CCCCCCCC(=O)OCC(COC(=O)CCCCCCC)(COC(=O)CCCCCCC/C=C\CCCC)COC(=O)CCCN(C)C [Example 9, 2-(((4-(dimethylamino)butanoyl)oxy)methyl)-2-((octanoyloxy)methyl)propane-1,3-diyl (9Z,9′Z)bis-tetradec-9-enoate] |  | 549893 cps
